Experimental data published in patent US10053443B2, “2-phenylbenzofuran derivatives, method for preparing the same and use of the same for treating inflammatory disease” (KOREA RESEARCH INSTITUTE OF BIOSCIENCE AND BIOTECHNOLOGY, priority 2014, dated 2018).

Tests used:
[1] = test system: Raw 264.7 (ATCC TIB71) cells; assay: Evaluation of cell survival rate of macrophages (MTT); format: cell-based, mouse; settings: Raw 264.7, 10 μM, 24 hours
Experimental: Raw 264.7 (ATCC TIB71) cells, the mouse derived macrophages', were inoculated in a 96-well plate containing DMEM (Dulbecco's modified Eagle medium; Welgene, Korea) supplemented with 10% FBS (Fetal Bovine Serum), 2 mM glutamine, penicillin (100 unit/ml), and streptomycin (100 μg/ml) at the density of 1×10^4 cells/well. The cells were cultured in 5% CO2 at 37° C. for 4 hours to attach the cells onto the plate. Next, the cells were treated with each sample at different concentrations, followed by further culture for 24 hours. To investigate the cell survival rate, 5 mg/ml of MTT (3-(4,5-dimethylthiazol-2-yl)-2,5-diphenyltetrazoliumbromide, Amresco, OH, USA) was distributed thereto (10 μl/well), followed by culture for 4 hours. Then, the supernatant was eliminated. Formazan reduced from MTT by mitochondria was dissolved in 100 μl of DMSO and then OD570 was measured. 0.2% DMSO was used for the negative control.

[2] = test system: interleukin-6 (IL-6) generation; assay: Inhibition of interleukin-6 (IL-6) generation in LPS-treated Raw 264.7 cells (ELISA); format: cell-based, mouse; settings: Raw 264.7, LPS treated; read-out: Grades of IC50 on IL-6 generation
Experimental: Raw 264.7 cells were distributed by the same manner as described in Experimental Example <2-1>, and IL-6 included in the supernatant treated with each sample at different concentrations was measured by enzyme-linked immunosorbent assay (IL-6 ELISA kit, BD Bioscience, San Diego, Calif.).
Particularly, 10-fold diluted supernatant was distributed in a 96-well plate on which IL-6 antibody was attached, followed by adhesion for 2 hours. The supernatant remaining after the adhesion was washed with a washing buffer. The detection antibody and HRP were adhered on the washed plate for 1 hour. The remaining antibody was washed. Color development was induced by using TMB substrate. The reaction was terminated with sulfuric acid solution. Then, OD450 was measured. IL-6 in the supernatant was quantified by using the standard curve made with the standard IL-6 included in the kit. IL-6 suppression rate was calculated by measuring the same concentration that could inhibit IL-6 generation up to 50% in the LPS treated group and the results are shown in Table 8.

[3] = test system: Nitrogen Oxide (NO) generation; assay: Inhibition of nitrogen oxide (NO) generation in LPS-treated Raw 264.7 cells (Griess); format: cell-based, mouse; settings: Raw 264.7, LPS 500 ng/ml, 24 hours
Experimental: Raw 264.7 (ATCC TIB71) cells were inoculated in a 96-well plate containing the same medium as used in Experimental Example 1 at the density of 1×10^5 cells/well. The cells were cultured in 5% CO2 at 37° C. for 4 hours to attach the cells onto the plate. The cells were treated with each sample at different concentrations, followed by further culture for 1 hour. […] were treated thereto at the final concentration of 500 ng/ml, followed by further culture for 24 hours. 100 μl of the supernatant was taken and transferred in a new plate, which was mixed with Griess reagent (a mixture of 1% sulfanilamide, 0.1% N-[1-naphthyl]-ethylenediamine dihydrochloride, and 5% phosphoric acid), followed by reaction for 10 minutes. Then, OD540 was measured. NO generation was quantified by using the sodium nitrite standard curve prepared from […] dissolved in the same medium at different concentrations. Considering the NO generation of the inflammation induced macrophages as 100%, the NO generation inhibition rate was calculated and presented in Table 7.

[4] = test system: rheumatoid arthritis animal model; settings: DBA/1 CIA mice, 30 mg/kg oral, FIGS. 11 and 12
Experimental: (§1) Bovine type II collagen (100 μg/mouse, Hondrax, Seattle, USA) and complete Freund's adjuvant (Chondrex, Seattle, USA) were intradermally injected in the tail of […]. On day 21, 100 μg of bovine type II collagen was mixed with incomplete Freund's adjuvant (IFA), which was injected in the tail of each mouse once again to induce arthritis.
(§2) The compound of Example 25 of the invention was dissolved in a solvent (10% DMAC+10% Tween 80 in PBS).
(§3) Administration pathway: Oral administration Group (6 per group) • Vehicle control group (CIA group) • Dexamethasone (0.3 mg/kg)—positive control group • Example 25 compound group (30 mg/kg)

interleukin-6 = settings: DBA/1 CIA mice, 30 mg/kg oral, FIG. 14
Experimental: as §1, §2, §3
(§4) ELISA was performed with the serum and foot to investigate whether or not the compound of the invention could suppress the generation of TNF-alpha and interleukin-6, the inflammatory cytokines known as the promoter of inflammation which is the common symptom of acute and chronic arthritis.

TNF-alpha = settings: DBA/1 CIA mice, 30 mg/kg oral, FIG. 13
Experimental: as §1, §2, §3, §4

SMILES: COc1cc(CCCO)cc(CCc2cccc(C)c2)c1O [Example 15, 4-(3-hydroxypropyl)-2-methoxy-6-(3-methylpenethyl)phenol]
- Grades of cell survival rate (%, in 10 μM) [1]: A (A: 90<A≤100)
- IC50 [2]: 20 to 30 µM
- Grades of NO generation inhibition rate (%) [3]: A (A: 35<A≤100)
- edema in the foot induced by collagen (clinical score) [4]: suppressed edema in the foot induced by collagen up to the level of the positive control
- generation of interleukin-6 induced by collagen (interleukin-6): inhibited
- generation of TNF-alpha induced by collagen (TNF-alpha): inhibited
